This is an account of results in patent publication US20050106114A1, “Process for improving the sun protection factor of cellulosic fibre material” (priority 2002, published 2005).

Experiment [1] can be described thus: Sun Protection Factor of treated fabric, AS/NZS 4399:1996, Melbourne sunlight. The conditions noted are these: Cotton-Poplin; bleached, then fresh bath with 0.01% UV absorber (102) followed by 0.2% compound (101), relative to fabric weight; average of 4 measurements. The source says: (§1) The sun protection factor is defined as the ratio of the harmful dose of UV energy on protected skin to the harmful dose of UV energy on unprotected skin. Accordingly, a sun protection factor is also a measure of the transmissivity of fibre materials untreated and of those treated with FWA's and reactive UV absorbers described in this invention.
(§2) The sun protection factor can be determined, for example, by the method described by B. L. Diffey and J.Robson in J.Soc.Cosmet.Chem., 40, 127-133 (1989).
(§3) Two samples each of 10 g. of a pre-washed cellulose fabric (cotton cretonne) are treated in an AHIBA® dyeing machine for 60 minutes at 95° C. at a liquor ratio of 1:20 in two different aqueous liquors.
(§4) A) 3.0 ml/l hydrogen peroxide 35% • 2.0 ml/l sodium silicate 38° Bé • 2.0 ml/l caustic soda 36° Bé • 0.5 g/l ULTRAVON EL
(§5) B) The same liquor as in A), but containing additionally • 0.012% compound of formula (101) according to Example 1.
If the procedure of Example 9 is repeated, but with samples of different cellulose fabric (cotton poplin) the results of the following table are obtained.
Two samples each of 10 g. of a pre-washed cellulose fabric (cotton cretonne or cotton poplin, respectively) are treated in an AHIBA® dyeing machine for 60 minutes at 95° C. at a liquor ratio of 1:20 in an aqueous liquor containing: […]

Experiment in experiment [2]: as above
The conditions noted are these: Cotton-cretone; bleached, then fresh bath with 0.01% UV absorber (102) followed by 0.2% compound (101), relative to fabric weight; average of 4 measurements.
Excerpt: as §1, §2, §3, §4, §5
Two samples each of 10 g. of a pre-washed cellulose fabric (cotton cretonne or cotton poplin, respectively) are treated in an AHIBA® dyeing machine for 60 minutes at 95° C. at a liquor ratio of 1:20 in an aqueous liquor containing:
The samples are then treated for 10 minutes at 40° C. at a liquor ratio of 1:20 in a fresh bath containing 0.01% (relative to the weight of the fabric) of the compound of the formula [drawing 25] […]

In the case of `CCOc1ccc(NC(=O)C(=O)Nc2ccc(Nc3nc(Cl)nc(Nc4ccc(S(=O)(=O)CCOS(=O)(=O)[O-])cc4)n3)cc2)cc1S(=O)(=O)[O-].[Na+].[Na+]` [compound (102)], the SPF value result in experiment [1] and in experiment [2] was “additional improvement” each time.
